# Laboratory results reported in US20180193391A1, “INDUCTION OF LAMINA PROPRIA REGULATORY T CELLS” (President and Fellows of Harvard College, priority 2015, published 2018).
# B1: IL-33: recombinant mouse IL-33 (BioLegend); alarmin (protein, UniProt Q8BVZ5 1-266, looked up)
# Interleukin-33: MRPRMKYSNSKISPAKFSSTAGEALVPPCKIRRSQQKTKEFCHVYCMRLRSGLTIRKETSYFRKEPTKRYSLKSGTKHEENFSAYPRDSRKRSLLGSIQAFAASVDTLSIQGTSLLTQSPASLSTYNDQSVSFVLENGCYVINVDDSGKDQEQDQVLLRYYESPCPASQSGDGVDGKKLMVNMSPIKDTDIWLHANDKDYSVELQRGDVSPPEQAFFVLHKKSSDFVSFECKNLPGTYIGVKDNQLALVEEKDESCNNIMFKLSKI
# Tests used:
# [1] = test system: colonic Rorγ^+ Tregs; assay: Mono-colonization of germ free mice with single bacterial species; colonic Rorγ+ Tregs by flow cytometry; format: in vivo, Germfree C57BL/6J mice
# Experimental: A panel of bacterial species selected from the microbiota of the human gastrointestinal tract were tested for their ability to induce the production of Rorγ^+ Tregs. Bacteria were obtained from the ATCC, BEI Resources, or the German Collection of Microorganisms and Cell Cultures (DSMZ), or from the laboratory collections at Harvard Medical School. Anaerobic bacteria were cultured under strictly anaerobic conditions (80% N2, 10% H2, 10% CO2) at 37° C. in an anaerobic chamber.
# Germfree C57BL/6J were maintained in sterile isolators, and were inoculated by gavage with single bacterial species at 4 weeks of age, then housed in gnobiotic isolators. After 2 weeks, mice were sacrificed, colon tissue was harvested, cleaned of luminal content and treated with RPMI containing 1 mM DTT, 20 mM EDTA and 2% FBS at 37° C. for 15 min to remove epithelial cells. The colon tissue was then minced and dissociated in collagenase solution (1.5 mg/ml collagenase II (Gibco), 0.5 mg/ml dispase and 1% FBS in RPMI) with constantly stirring at 37° C. for 45 min. […] Cells were analyzed with a BD LSRII flow cytometer, and data analysis was performed with FlowJo (Tree Star) software. The proportion of Rorγ^+ Tregs was determined within the total population of CD4^+FoxP3^+ Treg cells, and the significance of the difference relative to unmanipulated germfree mice determined using a two-tailed Student's T-test. […]
# [2] = test system: Rorγ^+ Tregs; assay: IL-33 administration to mice; response of Rorγ+ Tregs; format: in vivo; settings: recombinant mouse IL-33 i.p.
# Experimental: Mice were bred in a pathogen-free facility or in germ-free isolators. For IL-33 administration, recombinant mouse IL-33 (BioLegend) was administered i.p. at 2 μg/injection every other day for 7 days.
Molecule,"induction of production of Rorγ^+Helios^− LP Tregs ([1]; germ free mice colonized with single bacterial species for 2 weeks, FIGS. 4D, 4E and 5)","ability to promote colonic Treg production (proportions) ([1]; within the Bacteroides genus, mono-colonized germ free mice)",response of Rorγ^+ Tregs to IL-33 [2]
Bacteroides fragilis,capable of inducing production,low,
B1,,,do not respond
